The record followed here is PubChem BioAssay (NCI).

Test in all cases: NCI tumour cell line growth inhibition, 48 h
Test [1] has as its system NCI-H522 lung.
The subject of test [2] is MALME-3M melanoma.
Test [3] has as its system UO-31 renal.
Test [4] concerns OVCAR-8 ovarian.
The test system of test [5] is COLO 205 colon.
Test [6] concerns OVCAR-3 ovarian.
Test [7] deals with NCI/ADR-RES ovarian.
Test [8] has as its system BT-549 breast.
Test [9] relates to SF-295 CNS.
Test [10] has as its system MDA-MB-435.
Test [11] has as its system A549 NSCLC.
Test [12] relates to ACHN renal.
The subject of test [13] is NCI-H226 lung.
The test system of test [14] is UACC-62 melanoma.
Test [15] deals with HCT-15 colon.
Test [16] concerns 786-0 renal.
Test [17] concerns CCRF-CEM leukemia.
Test [18] concerns SNB-75 CNS.
The test system of test [19] is LOX IMVI melanoma.
Test [20] has as its system A498 renal.

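Five compound concentrations were applied to cells in 96-well plates for 48 hours; endpoints were derived by simple linear interpolation of the resulting dose-response curve. TGI denotes the concentration required for complete inhibition of growth.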 Where a SMILES comes first, the peptide text is derived from it. The star is where a group is joined. Boc = CC(C)(C)OC(=O)*; tBu = CC(C)(C)* A value given as a limit tells only on which side of the number the result lay.

As for `CCOC(=O)[C@@H]1C[C@@H]1c1ccc(O)c(O)c1`, the TGI is 26.5 µM in test [1]; more than 100 µM in [2]; 60.9 µM in test [3]; 52.2 µM in test [4]; more than 100 µM in test [5]; 67.8 µM in [6]. For the same compound, the TGI in test [7] is more than 100 µM; in test [8] it was 75.9 µM; in test [9], more than 100 µM; in test [10], 34.5 µM; in [11], more than 100 µM; in test [12] it was more than 100 µM. Further, the TGI was 97.4 µM in [13], 27 µM in test [14], more than 100 µM in test [15] and 34.7 µM in test [16].

For the compound `Nc1ncnc2c1N=C(c1ccccc1)CC(c1ccccc1)N2` (centres undefined), the TGI in test [1], in [17], in test [2], in test [3], in test [18] and in test [4] was more than 100 µM in each case. Further, the TGI in [5], in test [6], in test [7], in test [8], in [19] and in test [9] was more than 100 µM each time. The TGI in test [10], in test [11], in test [12], in test [13], in test [14] and in [15] was more than 100 µM in each case. For the same compound, in test [16], the TGI was more than 100 µM.

In the case of `OC1CSCCSCCCSCCSC1`, the TGI in test [1], in [3], in test [18], in test [4], in [5] and in [6] was more than 100 µM throughout. In addition, the TGI in test [8], in test [19], in test [9], in test [10], in test [11] and in test [12] was more than 100 µM in each case. Besides, the TGI in test [13], in test [14], in test [15], in test [16] and in test [20] was more than 100 µM each time.

As for `CSC1(Cc2ccccn2)C(=O)Nc2cccc([N+](=O)[O-])c21` (centres undefined), the TGI in test [1], in [17], in [2], in test [3], in test [18] and in test [4] was more than 100 µM each time. For the same compound, the TGI in [5], in test [6], in [7], in test [8], in test [19] and in [9] was more than 100 µM throughout. Besides, the TGI in [10], in [11], in [12], in test [13], in test [14] and in test [15] was more than 100 µM each time. Also, in test [16], the TGI is more than 100 µM.

For `CC(=O)c1sc2c(c1O)c(=O)n(-c1ccccc1)c(=S)n2-c1ccccc1`, the TGI in test [1], in [2], in [3], in [18], in test [4] and in test [5] was more than 100 µM throughout. The TGI in test [6], in test [8], in [19], in test [9], in test [10] and in test [11] was more than 100 µM in each case. For the same compound, the TGI in test [13], in [14], in [15] and in test [16] was more than 100 µM in each case.

Turning to `CC(=O)Nc1sccc1S(=O)(=O)c1ccc(Cl)cc1`, the TGI in test [1], in [17], in [2], in [3], in [18] and in test [4] was more than 100 µM each time. The TGI in [5], in [6], in [7], in [8], in test [9] and in test [10] was more than 100 µM in each case. Besides, the TGI in test [11], in [12], in test [13], in test [14], in test [15] and in test [16] was more than 100 µM throughout.

With `CCOC(=O)C(C)(Cc1ccc(O)cn1)NC(=O)c1ccccc1` (centres undefined), the TGI in test [1], in [17], in test [2], in [3], in test [18] and in [4] was more than 100 µM throughout. The TGI in test [5], in test [6], in test [7], in [8], in test [19] and in test [9] was more than 100 µM in each case. Also, the TGI in [10], in test [11], in test [12], in test [13], in [14] and in test [15] was more than 100 µM throughout. In test [16], this compound registered a TGI of more than 100 µM.

Regarding `CCCCOCCOCCOC1=C(Cl)C(=O)c2c(O)ccc(O)c2C1=O`, the TGI in test [17] amounted to 0.555 µM; in test [3] it was 2.68 µM; in test [18], 1.25 µM; in test [4] it was 7.43 µM; in [5] it was 0.756 µM; in test [6] it was 2.08 µM. For the same compound, the TGI in test [7] was found to be 7.49 µM; in [8], 2.72 µM; in test [19] it was 1.75 µM; in [9], 3.13 µM; in test [11], 4.14 µM; in [12] it was 3.11 µM. Moreover, the TGI in [13] was 3.21 µM; in test [14], 3.47 µM; in [15], 1.11 µM; in test [16] it was 3.4 µM; in test [20], 4.95 µM.

As to `O=C(c1ccccc1)c1ccc2nc3n(c2c1)C(c1c(Cl)cccc1Cl)SC3` (centres undefined), the TGI was 5.1 µM in [1]; more than 100 µM in test [17]; 31.3 µM in test [2]; more than 67.6 µM in test [3]; 18.9 µM in [18]; more than 55.5 µM in [4]. The TGI in test [5] is more than 90.2 µM; in test [6], more than 100 µM; in test [7] it was 35.8 µM; in [8], more than 100 µM; in test [19] it was 31.6 µM; in [9], more than 26.6 µM. Moreover, the TGI in [11] was 54.7 µM; in [12] it was more than 38 µM; in test [13] it was more than 100 µM; in test [14], more than 36.5 µM; in test [15] it was more than 100 µM; in [16], more than 100 µM. Besides, in test [20], the TGI was determined as 50.1 µM.

Take `Cn1c(=O)n2n(c1=O)C(S(=O)c1ccccc1)C2` (centres undefined): the TGI in test [1], in [17], in test [3], in test [18], in [4] and in [5] was more than 100 µM throughout. The TGI in test [6], in test [7], in [8], in test [19], in test [9] and in test [10] was more than 100 µM in each case. Moreover, the TGI in test [11], in [12], in test [14], in test [15] and in test [16] was more than 100 µM in each case.

For `Cc1cc(NS(=O)(=O)c2ccc(NC(=O)c3ccc4nc5ccccc5c(Nc5ccc(S(=O)(=O)Nc6cc(C)on6)cc5)c4c3)cc2)no1`, the TGI in test [1], in [17], in test [2], in test [3], in test [18] and in [4] was more than 50 µM each time. Further, the TGI in test [5], in test [6], in [7], in test [8], in test [19] and in test [9] was more than 50 µM throughout. Moreover, the TGI in test [10], in test [11], in test [12], in test [13], in test [14] and in test [15] was more than 50 µM each time. This compound showed a TGI in test [16] of more than 50 µM.

Turning to `CC(OC(C)(C)C)C(NC(=O)C(N)CCCCNC(=O)OC(C)(C)C)C(=O)NC(Cc1ccccc1)C(=O)O` (centres undefined) (H-Lys(Boc)-Thr(tBu)-Phe-OH; configuration not given here), the TGI in test [17], in test [2], in test [3], in [18], in [4] and in test [5] was more than 100 µM in each case. For the same compound, the TGI in [6], in test [7], in test [8], in [19], in [9] and in [10] was more than 100 µM throughout. Also, the TGI in [11], in [12], in test [13], in test [14], in test [15] and in test [16] was more than 100 µM in each case.
